Results taken from US11149035B2, “Chemical compounds as H—PGDS inhibitors” (GlaxoSmithKline Intellectual Property Development Limited, priority 2017, dated 2021).

System: prostaglandin D2 generation following 48/80-induced mast cell degranulation
Assay: In vivo mast cell activation (compound 48/80-induced degranulation, PGD2 in peritoneal lavage by LC/MS/MS)
Parameters: species or system mouse
Settings: normal C57Bl6/N mice; oral 0.1-10 mg/kg ~1 hour prior to 48/80 i.p.; peritoneal lavage 7 minutes afterwards; FIG. 2
Method: Mice were randomized by body weight into 8 groups (n=8): Vehicle (0.5% HPML with 0.1% Tween80)+phosphate buffered saline (PBS), vehicle+compound 48/80 (0.75 mg/ml) and compound 48/80+Example 21 at various doses ranging from 0.1 mg/kg to 10 mg/kg.
C57BL mice were dosed orally with vehicle, or Example 21 at 0.1, 0.3, 1, 3, & 10 mg/kg. One hour later, blood samples were withdrawn via tail snip for measurement of drug levels, and mice were then terminally anesthetized with 2% isoflurane and given an intraperitoneal injection of 0.2 mL PBS or compound 48/80 solution (0.75 mg/mL, Sigma), followed by gentle massage of the abdomen. Mice were kept under anesthesia for 7 minutes prior to euthanasia. […]
Samples were thawed at room temperature and vortex-mixed. […] The plate was vortex-mixed for 30 seconds at 1000 rpm and analyzed by LC/MS/MS.
The analytical system consisted of a CTC HTS PAL autoinjector (Leap, Carrboro, N.C.), an Agilent 1290 Infinity binary pump and thermostated column compartment (Agilent Technologies, Santa Clara, Calif.) and an AB Sciex QTRAP 5500 mass spectrometer (AB Sciex, Framingham, Mass.). […] The analytes were detected by multiple reaction monitoring (MRM) in negative mode using Turbolon spray with the transitions of m/z 351/271 amu for PGD2/PGE2 and m/z 360/280 amu for PGD2-d9/PGE2-d9. […]

CC(C)(O)[C@H]1CC[C@H](NC(=O)c2cnc3nc(C4CC4)ccc3c2)CC1 [Example 21, 7-Cyclopropyl-N-((trans)-4-(2-hydroxypropan-2-yl)cyclohexyl)-1,8-naphthyridine-3-carboxamide]
48/80-induced PGD2 generation in lavage fluid: prevents 48/80-induced PGD2 generation
